The target in one data set is T1, UGT1A1 (Homo sapiens, UniProt P22309).
T1 construct: using pooled human liver microsomes incubated with the cocktail of UGT substrates; tissue Corning Life Sciences 452161; host or cells: pooled human liver microsomes
T1 sequence (P22309 26-533): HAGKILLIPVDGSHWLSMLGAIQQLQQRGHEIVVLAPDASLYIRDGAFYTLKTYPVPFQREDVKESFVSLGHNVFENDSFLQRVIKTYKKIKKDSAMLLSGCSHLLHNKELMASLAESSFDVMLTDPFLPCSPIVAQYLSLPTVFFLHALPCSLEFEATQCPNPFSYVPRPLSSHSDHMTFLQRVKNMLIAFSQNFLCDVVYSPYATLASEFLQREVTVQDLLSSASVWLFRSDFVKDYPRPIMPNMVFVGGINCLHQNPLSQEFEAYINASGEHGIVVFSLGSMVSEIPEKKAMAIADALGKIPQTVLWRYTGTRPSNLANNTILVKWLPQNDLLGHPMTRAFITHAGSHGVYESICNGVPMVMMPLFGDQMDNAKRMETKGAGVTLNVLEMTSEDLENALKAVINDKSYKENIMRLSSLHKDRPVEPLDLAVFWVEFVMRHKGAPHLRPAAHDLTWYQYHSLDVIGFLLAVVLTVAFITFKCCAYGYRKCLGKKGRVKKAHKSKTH
As to the kind of experiment: UGT1A1-catalyzed SN-38 glucuronidation inhibition in pooled human liver microsomes. The settings on record: 0.5 µM SN-38, pooled human liver microsomes. The class given is in vitro ADME. The protocol: (§1) The extents of aschantin on UGT1A1, UGT1A3, UGT1A4, UGT1A6, UGT1A9, and UGT2B7 were evaluated by LC-MS/MS, using pooled human liver microsomes incubated with the cocktail of UGT substrates. The method was modified from that of Joo et al..
(§2) The metabolites formed from the six UGT cocktail substrates were simultaneously measured using the LC-MS/MS method. […] The mass spectrometer was equipped with an ESI source and was operated in both positive and negative ion modes. […] Each metabolite was quantified via SRM in the negative ion (chenodeoxycholic acid 24-acyl-β-glucuronide, 567.2 > 391.0; mycophenolic acid glucuronide, 495.2 > 318.9; propofol glucuronide, 353.3 > 177.1) and positive ion (SN-38 glucuronide, 569.0 > 393.0; trifluoperazine glucuronide, 584.2 > 408.1; N-acetylserotonin-β-D-glucuronide, 395.2 > 219.0; naloxone 3-β-D-glucuronide, 504.0 > 310.0; meloxicam, 352.0 > 115.1) modes.

A further data set concerns the target CYP2D6 (Homo sapiens, UniProt P10635). As to the kind of experiment: CYP2D6-catalyzed bufuralol 1′-hydroxylase inhibition in pooled human liver microsomes.
For a further data set, the target named is T2, UGT2B7 (Homo sapiens, UniProt P16662).
T2 construct: using pooled human liver microsomes incubated with the cocktail of UGT substrates; tissue Corning Life Sciences 452161; host or cells: pooled human liver microsomes
T2 sequence (P16662 24-529): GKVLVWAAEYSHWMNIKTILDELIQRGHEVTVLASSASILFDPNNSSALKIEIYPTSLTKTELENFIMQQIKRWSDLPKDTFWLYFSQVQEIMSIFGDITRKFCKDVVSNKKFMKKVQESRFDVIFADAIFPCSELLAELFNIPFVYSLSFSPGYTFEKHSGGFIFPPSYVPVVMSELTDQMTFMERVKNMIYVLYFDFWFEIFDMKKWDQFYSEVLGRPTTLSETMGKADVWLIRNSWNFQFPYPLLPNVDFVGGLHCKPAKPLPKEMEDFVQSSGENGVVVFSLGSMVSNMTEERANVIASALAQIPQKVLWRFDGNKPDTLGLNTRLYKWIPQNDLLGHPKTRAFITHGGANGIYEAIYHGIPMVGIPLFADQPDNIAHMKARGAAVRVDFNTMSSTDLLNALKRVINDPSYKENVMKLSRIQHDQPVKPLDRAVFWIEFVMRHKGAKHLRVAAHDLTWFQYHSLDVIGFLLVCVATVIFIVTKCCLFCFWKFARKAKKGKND
As to the kind of experiment: UGT2B7-catalyzed naloxone 3-β-D-glucuronidation inhibition in pooled human liver microsomes. The class given is in vitro ADME. The protocol: as §1, §2

A further data set has as its target T3, CYP2C8 (Homo sapiens, UniProt P10632).
T3 sequence (P10632 1-490): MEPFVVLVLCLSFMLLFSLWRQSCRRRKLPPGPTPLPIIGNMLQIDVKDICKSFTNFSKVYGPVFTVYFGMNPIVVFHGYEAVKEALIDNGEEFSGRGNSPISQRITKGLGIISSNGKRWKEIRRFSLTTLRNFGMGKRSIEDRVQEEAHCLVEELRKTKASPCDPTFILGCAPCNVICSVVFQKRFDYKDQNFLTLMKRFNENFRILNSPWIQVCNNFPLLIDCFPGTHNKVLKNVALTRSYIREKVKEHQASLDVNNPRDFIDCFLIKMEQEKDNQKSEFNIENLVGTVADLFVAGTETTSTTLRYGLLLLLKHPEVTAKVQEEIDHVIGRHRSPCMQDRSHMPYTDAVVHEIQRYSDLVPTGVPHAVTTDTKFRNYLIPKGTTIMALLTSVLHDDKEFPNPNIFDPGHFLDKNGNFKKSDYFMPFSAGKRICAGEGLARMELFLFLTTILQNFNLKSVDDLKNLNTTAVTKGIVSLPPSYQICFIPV
As to the kind of experiment: CYP2C8-catalyzed amodiaquine N-de-ethylase inhibition in pooled human liver microsomes. The settings on record: for pIC50: CYP2C8 amodiaquine N-de-ethylase, 2.0 µM amodiaquine.

The target in a further data set is CYP2C19 (Homo sapiens, UniProt P33261). As to the kind of experiment: Mechanism-based (time- and concentration-dependent) inactivation of CYP2C19 in human liver microsomes. The following applies: CYP2C19-mediated [S]-mephenytoin 4′-hydroxylation. The class given is in vitro ADME. The procedure: The microsomes (1 mg/mL) were pre-incubated with various concentrations of aschantin in 50 mM potassium phosphate buffer (pH 7.4) in the presence of NADPH. Aliquots (10 µL) of the incubated mixtures were withdrawn at 5, 10, 15, and 20 min after incubation commenced and added to other tubes containing the CYP substrates (2 µM amodiaquine for CYP2C8, 10 µM diclofenac for CYP2C9, 100 µM [S]-mephenytoin for CYP2C19, or 2 µM midazolam for CYP3A4), 1 mM NADPH, 50 mM potassium phosphate buffer (pH 7.4), and 10 mM MgCl2, in 90 µL reaction mixtures. […] Aliquots (5 µL) of the diluted supernatants were analyzed by LC-MS/MS, as described above.

A further data set deals with CYP2C9 (Homo sapiens, UniProt P11712). As to the kind of experiment: CYP2C9-catalyzed diclofenac 4′-hydroxylase inhibition in pooled human liver microsomes. The following applies: for pIC50: CYP2C9 diclofenac 4′-hydroxylase, 10 µM diclofenac.
The mark [1] stands for this setting: IC50 No Pre-incubation, pooled human liver microsomes, no pre-incubation.
[2] abbreviates: IC50 With Pre-incubation, 30 min pre-incubation with microsomes and NADPH.

Each structure is given as a SMILES string. pIC50, pKi: −log10 of the molar value. Read-outs that look alike come from different tables or passages of the source. Where only a bound is given, the exact number is not on record here.

Sequence of CYP2D6 (P10635 whole entry): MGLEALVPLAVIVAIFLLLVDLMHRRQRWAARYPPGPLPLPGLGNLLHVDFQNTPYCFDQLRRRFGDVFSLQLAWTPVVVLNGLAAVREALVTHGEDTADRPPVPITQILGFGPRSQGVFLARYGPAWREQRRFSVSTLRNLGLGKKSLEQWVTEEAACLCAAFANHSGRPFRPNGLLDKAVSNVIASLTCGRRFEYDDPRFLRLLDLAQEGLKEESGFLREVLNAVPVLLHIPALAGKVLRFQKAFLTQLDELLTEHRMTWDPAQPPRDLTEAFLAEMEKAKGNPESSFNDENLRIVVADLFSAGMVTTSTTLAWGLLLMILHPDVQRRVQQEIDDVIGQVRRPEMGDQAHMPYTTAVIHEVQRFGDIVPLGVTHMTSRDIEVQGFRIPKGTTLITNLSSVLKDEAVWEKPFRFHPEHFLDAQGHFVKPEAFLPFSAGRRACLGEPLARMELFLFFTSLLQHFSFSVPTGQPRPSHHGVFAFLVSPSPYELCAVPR
Sequence of CYP2C9 (P11712 whole entry): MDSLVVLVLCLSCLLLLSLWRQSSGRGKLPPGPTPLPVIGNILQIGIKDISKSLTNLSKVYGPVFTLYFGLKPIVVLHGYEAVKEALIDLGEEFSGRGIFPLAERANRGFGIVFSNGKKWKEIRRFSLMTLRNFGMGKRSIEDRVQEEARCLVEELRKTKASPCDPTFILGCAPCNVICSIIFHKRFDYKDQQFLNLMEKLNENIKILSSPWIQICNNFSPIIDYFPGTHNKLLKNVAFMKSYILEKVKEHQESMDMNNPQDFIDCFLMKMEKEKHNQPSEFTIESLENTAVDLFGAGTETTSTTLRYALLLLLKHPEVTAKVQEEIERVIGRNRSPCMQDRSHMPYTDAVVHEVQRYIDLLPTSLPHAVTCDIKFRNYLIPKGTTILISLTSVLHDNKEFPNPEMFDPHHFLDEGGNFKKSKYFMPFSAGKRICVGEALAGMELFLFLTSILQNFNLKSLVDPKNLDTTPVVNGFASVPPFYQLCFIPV
Sequence of CYP2C19 (P33261 whole entry): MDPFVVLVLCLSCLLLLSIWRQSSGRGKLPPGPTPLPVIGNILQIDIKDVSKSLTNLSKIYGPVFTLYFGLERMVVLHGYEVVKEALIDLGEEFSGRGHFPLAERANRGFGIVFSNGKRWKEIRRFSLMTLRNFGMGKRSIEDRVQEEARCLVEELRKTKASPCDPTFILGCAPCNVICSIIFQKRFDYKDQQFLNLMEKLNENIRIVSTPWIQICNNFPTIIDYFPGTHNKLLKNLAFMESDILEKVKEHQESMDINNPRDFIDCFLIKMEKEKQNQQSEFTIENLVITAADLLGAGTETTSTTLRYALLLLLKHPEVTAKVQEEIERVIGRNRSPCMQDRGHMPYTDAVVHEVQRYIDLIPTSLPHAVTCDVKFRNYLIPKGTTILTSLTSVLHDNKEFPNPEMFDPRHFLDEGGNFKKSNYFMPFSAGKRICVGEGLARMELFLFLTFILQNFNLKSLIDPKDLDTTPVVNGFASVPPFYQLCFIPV
Description for CYP2C8: (§3) The degrees of inhibition (the IC50 values) of aschantin toward CYP1A2, CYP2A6, CYP2C8, CYP2C9, CYP2C19, CYP2D6, and CYP3A4 were evaluated using pooled human liver microsomes employing a cocktail of CYP substrates and liquid chromatography-tandem mass spectrometry (LC-MS/MS). […] After 3 min pre-incubation at 37 °C, the reactions were initiated by addition of NADPH and incubation proceeded for 15 min at 37 °C in a shaking water bath. The reaction was stopped by placing the tubes on ice and adding 100 µL amounts of ice-cold methanol containing internal standards (^13C2,^15N-acetaminophen for acetaminophen and N-desethylamodiaquine; d9-1′-hydroxybufuralol for 4′-hydroxydiclofenac; and 7-hydroxycoumarin, 4′-hydroxy-mephenytoin, 1′-hydroxybufuralol, and 1′-hydroxymidazolam). Then the incubation mixtures were centrifuged at 13,000× g for 4 min at 4 °C. All assays were performed in triplicate and the average values were used in calculations.
(§4) To this end, we employed a tandem mass spectrometer (TSQ Quantum Access, Thermo Scientific, San Jose, CA, USA) coupled to a Nanospace SI-2 LC system (Shiseido, Tokyo, Japan). The column and autosampler temperatures were 50 °C and 6 °C, respectively. The mass spectrometer was equipped with an electrospray ionization (ESI) source and was operated in positive ion mode. The ESI source settings for metabolite ionization were as follows: capillary voltage, 4200 V; vaporizer temperature, 350 °C; capillary temperature 330 °C; sheath gas pressure, 35 psi; and auxiliary gas pressure, 15 psi. […] Analytical data were processed using Xcalibur® software (Thermo Scientific).
(§5) The apparent kinetic inhibitory potentials (the Ki values) were estimated from the fitted curves using Enzyme Kinetics version 1.1 (Systat Software Inc.).
Description for CYP2C9: as §3, §4, §5
Description for CYP2D6: as §3, §4

`COc1cc([C@H]2OC[C@H]3[C@@H]2CO[C@@H]3c2ccc3c(c2)OCO3)cc(OC)c1OC` [Aschantin]: the pIC50 against UGT1A1 was 3.88; at CYP2D6, less than 4.00; on CYP2D6 (read-out: IC50 With Pre-incubation, CYP2D6 bufuralol 1′-hydroxylase, 5.0 µM bufuralol, 30 min pre-incubation with microsomes and NADPH), less than 4.00; at UGT2B7 (UGT2B7-catalyzed naloxone 3-β-D-glucuronidation, 1 µM naloxone, pooled human liver microsomes), less than 3.70; against CYP2C8 (setting [1]) it was 4.56; at CYP2C8 (setting [2]) it was 5.28. Moreover, the pIC50 against CYP2C9 (setting [1]) is 4.39; against CYP2C9 (setting [2]), 4.85. Also, the “inhibition of CYP2D6-mediated bufuralol 1′-hydroxylation” value on CYP2D6 (aschantin at 100 µM, human liver microsomes) is “negligibly inhibited”. Further, the “inhibition of UGT2B7-catalyzed naloxone 3-β-D-glucuronidation” value against UGT2B7 (aschantin at 200 µM, human liver microsomes) is listed as “not inhibited”. Besides, the IC50 shift at 0.5 h is more than 2.5 at CYP2C8 (human, pooled human liver microsomes, pH 7.4, probe amodiaquine (2.0 µM), N-de-ethylation) and more than 2.5 on CYP2C9 (human, pooled human liver microsomes, pH 7.4, probe diclofenac (10 µM), 4′-hydroxylation). In addition, the pKi at CYP2C19 (read-out: Ki (apparent)) is 5.24. Besides, the kinact on CYP2C19 (pH 7.4, probe [S]-mephenytoin (100 µM)) is 0.0008 s⁻¹.

The values above are taken from paper PMC6273138, “Inhibitory Effects of Aschantin on Cytochrome P450 and Uridine 5′-diphospho-glucuronosyltransferase Enzyme Activities in Human Liver Microsomes” (Molecules, 2016).
